Assay results from patent publication US11107993B2, “Organic compound and organic electroluminescent element comprising same” (MATERIAL SCIENCE CO., LTD., priority 2015, dated 2021).

Assay: Evaluation of solubility of organic compound in hexane, toluene and dichloromethane
Type: physicochemical
Conditions: room temperature; for solubility compared with Compound 9: summary of Table 3, toluene, dichloromethane
Protocol: Evaluation of Solubility of Organic Compound
The solubility in hexane, toluene and dichloromethane was measured for the compounds of Synthesis Example 9, and Comparative Synthesis Examples 2 and 3.

Row | SMILES | solubility in hexane | solubility compared with Compound 9
1 | CCc1cc(N(c2cc(C)ccc2C)c2cc(C(C)(C)C)ccc2C)c2ccc3c(CC)cc(N(c4cc(C)ccc4C)c4cc(C(C)(C)C)ccc4C)c4ccc1c2c34 [Compound 1-C] | Insoluble | significantly lower solubility than Compound 9
2 | Cc1ccc(C)c(N(c2cc(C(C)(C)C)ccc2C)c2ccc3ccc4c(N(c5cc(C)ccc5C)c5cc(C(C)(C)C)ccc5C)ccc5ccc2c3c54)c1 [Compound 1-B] | Insoluble | significantly lower solubility than Compound 9
